From PubChem BioAssay (NCI) come the findings set out here.

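Results reflect a 48-hour exposure of cells in 96-well plates to compound at five concentrations. The concentration for 50% growth inhibition is given as GI50. TGI: total growth inhibition.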

What all share (assay): DTP human tumour cell line panel, 48 h
The subject of test [1] is 786-0 renal.
The subject of test [2] is A498 renal.
The subject of test [3] is CCRF-CEM leukemia.
For test [4], the system named is NCI-H460 lung.
Test [5] concerns OVCAR-3 ovarian.
The test system of test [6] is OVCAR-5 ovarian.
The subject of test [7] is SK-MEL-2 melanoma.
Test [8] concerns SK-MEL-5 melanoma.
Test [9] relates to SNB-75 CNS.
The test system of test [10] is NCI/ADR-RES ovarian.

By TGI is commonly meant the concentration at which net growth stops. Read a high TGI as lower sensitivity of the cells. On to `COc1ccc(Nc2nc3ccc(C(F)(F)F)cc3nc2-c2ccccc2)cc1OC`, for which the TGI in test [1] is 72.7 µM; in test [2], over 100 µM; in [3], over 100 µM; in test [4] it was 37.1 µM; in [5], over 100 µM; in test [6], over 100 µM. Also, the TGI in test [7], in test [8] and in test [9] was over 100 µM throughout.

One may read the GI50 as the concentration that inhibits growth by half. Consider `C[N-]c1nnnn1C.[Au+].c1ccc([PH+](c2ccccc2)c2ccccc2)cc1`, for which the GI50 in [1] is 1.74 µM; in [3] it was 0.556 µM; in [4], 8.54 µM; in test [5] it was 2.58 µM; in [6] it was 19.1 µM; in test [7], 1.66 µM. For the same compound, the GI50 in test [8] is 1.59 µM; in [9] it was 4.75 µM. For the same compound, the TGI in test [1] worked out at 3.12 µM; in test [3] it was 3.44 µM; in [4] it was 52.7 µM; in test [5], 6.53 µM; in test [6], 34 µM; in test [7] it was 3.78 µM. Besides, the TGI came to 3.65 µM in [8] and 11 µM in test [9].

On to `CC(C)CCC(=O)c1ccoc1`, for which the TGI in test [1], in test [3], in [4], in test [10], in test [5] and in test [6] was over 100 µM throughout. Moreover, the TGI in test [7], in test [8] and in test [9] was over 100 µM in each case.

For the compound `COCCCNC(=O)C1C(=O)N(CCCOC)C(=O)/C1=N\N` (centres undefined), the TGI in test [1], in test [2], in test [3], in test [4], in [5] and in test [6] was over 100 µM in each case. For the same compound, the TGI in test [7], in test [8] and in [9] was over 100 µM in each case.

For `C=C1C(=O)O[C@@H]2C[C@@H](C)[C@@H]3C=CC(=O)[C@@]3(C)[C@@H](OC(=O)CC(=O)O[C@H]3[C@@H]4C(=C)C(=O)O[C@@H]4C[C@@H](C)[C@@H]4C=CC(=O)[C@]43C)[C@H]12`, the TGI in [1] was 0.0355 µM; in [2] it was 0.467 µM; in test [3] it was 0.0376 µM; in test [4], 0.361 µM; in test [5], 0.159 µM; in test [6] it was 0.39 µM. Besides, the TGI was determined as 0.224 µM in test [7], 0.215 µM in [8] and 1.54 µM in test [9].

As to `Cc1cc2c(ccc3c(C)cc(=O)oc32)o1`, the TGI in [1], in test [3], in test [4], in test [5], in [6] and in test [7] was over 100 µM in each case. Moreover, the TGI in test [8] and in test [9] was over 100 µM throughout.

`C#Cc1cccc(N2C(=O)CCC2=O)c1`: the TGI in test [1] is 40.5 µM; in test [2], 29.5 µM; in test [3] it was 8.11 µM; in test [4] it was 71.7 µM; in test [5], 37.3 µM; in test [6], 32.5 µM. Further, the figures for the TGI in test [7], in test [8] and in test [9] were 36.6 µM, 37.1 µM and 26.8 µM, respectively.

With `CCC[CH2][Sn]1([CH2]CCC)[O]CC(Cc2ccccc2)[O]1` (centres undefined), the GI50 in test [1] was 1.86 µM; in test [2], 2.77 µM; in [3] it was 1.22 µM; in test [4], 11 µM; in test [5], 2.34 µM; in test [6], 11.2 µM. Besides, the GI50 in [7] is 1.54 µM; in test [8] it was 3.09 µM; in [9], 2.76 µM. In addition, the TGI in [1] was found to be 3.73 µM; in [2] it was 8.22 µM; in test [3], 4.57 µM; in test [4], 23.4 µM; in [5], 7.42 µM; in test [6] it was 23.3 µM. The TGI in [7] was found to be 3.45 µM; in test [8], 14.2 µM; in test [9] it was 7.74 µM.

On to `CN(C)CC(C)(C)C(=O)/C=C/c1ccc(/C=C/C(=O)C(C)(C)CN(C)C)cc1`, for which the TGI was 3.08 µM in test [1]; 3.46 µM in [2]; 3.78 µM in [3]; 13.9 µM in test [4]; 2.59 µM in test [5]; 3.51 µM in [6]. The figures for the concentration for total growth inhibition (TGI) in [8] and in test [9] were 5.13 µM and 3.05 µM, respectively.

In the case of `COc1ccc(OC)c2c1CC(C(=O)O)(C(=O)O)CC2=O`, the TGI in test [1], in [5], in [6], in [7], in test [8] and in test [9] was over 100 µM each time.

On to `Cc1[nH]c2ccccc2c1C(=O)CC1(O)C(=O)Nc2ccccc21` (centres undefined), for which the TGI in test [1], in test [2], in test [3], in test [4], in test [6] and in [7] was over 100 µM in each case. The TGI in test [8] and in test [9] was over 100 µM each time.

For `c1cc(N(CCn2cccn2)CCn2cccn2)cc(N(CCn2cccn2)CCn2cccn2)c1`, the TGI in [1], in test [2], in [3], in test [4], in test [5] and in test [7] was over 100 µM throughout. Further, the TGI in test [8] and in test [9] was over 100 µM throughout.

Turning to `C=C(COC(C)=O)CC(OC(C)=O)c1ccccc1` (centres undefined), the TGI in [1], in test [2], in test [3], in [4], in [5] and in test [6] was over 100 µM each time. Besides, the TGI in test [7], in test [8] and in test [9] was over 100 µM throughout.

For the compound `Cc1ccc(NC(=O)C2C(=O)N(c3ccc(C)cc3)C(=O)/C2=N\NC(N)=S)cc1` (centres undefined), the TGI in [1], in test [2], in test [4], in test [5], in [6] and in [7] was over 100 µM throughout. Besides, the TGI in test [8] and in test [9] was over 100 µM throughout.
